From US9249086B2, “Carboxylic acid ALA esters” (Photocure ASA, priority 2012, dated 2016)
Counter-ions that a name gives are not always drawn.

Assays:
[1] = system: skin of healthy nude mice; test: In vivo skin fluorescence study in healthy nude mice; details: cream in Unguentum Merck, equimolar (16-19%), about 100 μl on back, 6 hours in the dark, excitation 365 and 405 nm, mean of 5 mice
Method: A study was carried out to assess the potential of the compounds of the invention as precursors for photosensitisers for skin application. As such, the compounds of the invention need to be able to penetrate the skin, to be taken up by the cells in the skin and to be converted to photosensitisers. The result of this process can be visualized by exposing the skin to light which excites the photosensitiser molecules and to determine the amount of energy which is released in the form of fluorescence when the excited photosensitiser molecules relax to an energetically lower state.
Compounds 2, 4 and 7 above were formulated as creams in Unguentum Merck. The compounds were tested in equimolar amounts:
3 groups of mice (5 mice/group, each mouse of one group receiving the same cream formulation) were included in the experiment. About 100 μl of cream formulation was applied onto the back of one mouse. The mice were kept in the dark for 6 hours prior to skin fluorescence measurement to avoid photobleaching. For assessment of skin fluorescence, a fluorescence camera (Medeikonos PDD/PDT, Medeikonos AB, Gothenburg, Sweden) was used and images of the back of each mouse were taken. Excitation was carried out at wavelengths of 365 and 405 nm and 2 s illumination time. Each image was calibrated to a fluorescence standard (Uranyl Standard, J&M, Analytische Mess- and Regeltechnik GmbH, Hamburg, Germany) and adjusted for background fluorescence. The mean amount of skin fluorescence in each image was calculated by means of image analyzer-software (MatLab 7.2.0.232, Math-Works, Natick, Mass., USA) and the mean amount of skin fluorescence for each group of mice (5 mice/compound) was calculated.

[2] = system: S. aureus strain DSM 20231 (ATCC 12600); test: Dark toxicity in bacteria; type: cell-based, Staphylococcus aureus; details: 0.001, 0.1, 1 and 10 mM, plate not illuminated
Method: S. aureus strain DSM 20231 (ATCC 12600). The bacterial strain was grown for 24 hours on heart infusion agar (Difco) at 35-37° C. prior to carrying out the experiment and re-suspended in 20 mM PIPES, pH 7.2-7.4 at a concentration corresponding to a McFarland 0.5 standard (approximately 1-5×10^8 CFU/mL). In order to ensure viable cell cultures and to check the inoculum size and purity, bacterial stocks were made immediately prior to experimentation and the CFU/mL determined in a standard colony assay.
“Dark toxicity”, i.e. the toxic effect of the compounds in the absence of light (and therefore unrelated to PDT effects), can include bacteria cell death and therefore can interfere with the accurate measurement of the PDT effect, which also results in bacterial cell death. Dark toxicity can be measured by determining the toxicity of each compound under the same experimental conditions, but in the absence of light, thereby avoiding any PDT effect. The use of the compounds of the invention under conditions that produce low dark toxicity is advantageous because dark toxicity effects could also include harming or killing non-target cells and interfering with the PDT treatment itself. […]
Dark toxicity was determined as described in the paragraph “PDT-treatment” below, except that the plate was not illuminated. […]

[3] = system: Rat bladder cells (AY-27); test: PpIX measurements in rat bladder cells; type: cell-based; details: AY-27 cells; for PpIX Mean ± SD: 2 hours incubation
Method: Rat bladder cells (AY-27) were grown in the culture medium (RPMI 1640 supplemented with 9% fetal calf serum 1% L-glutamin (200 mM) and 1% penicillin (10 000 UI), streptomycin (10 000 μg·mL^−1). Exponentially growing cells (AY-27) were incubated for 2 hours with freshly prepared solutions of 0.8 mM HAL (which is a tenth of the concentration which is used for bladder cancer […]). Control cells received serum-free medium without any test or reference compounds. After the incubation, the solutions or the medium was discarded and the cells were rinsed 2 times with ice-cooled PBS. PpIX was extracted from cells using an ice-cold lysis extraction mixture, consisting of ethanol/DMSO/acetic acid (80/20/1, v/v/v). The cell lysate was centrifuged (400 g, 10 min, 2° C.), the pellet was grinded and the suspension was sonicated for 15 min before being centrifuged. The fluorescence signal of PpIX was measured with a Perkin-Elmer LS 55 spectrometer (Perkin-Elmer, Beaconsfield, UK) and expressed as a function of the protein content. The fluorescence intensity at 635 nm in each sample was reported on a calibration curve established with PpIX (Sigma-Aldrich, France) diluted in extraction mixture as described above. The PpIX concentration was expressed relative to the protein content. Briefly, a lysis buffer mixture (1 mM EDTA, 1% Triton X-100 and 10 mM Tris-HCl; pH 7.4) was added to frozen cell dishes together with 500 mM PMSF (anti-protease) solution in DMSO. Lysates were kept on ice for 30 minutes and centrifuged at 4° C. for 20 minutes at 15 000 g. The protein content was then measured against a BSA calibration curve by a Biorad DC protein assay kit (Bio-Rad, France) based on a method developed by Lowry.

[4] = system: Rat bladder cells (AY-27); test: Cytotoxicity in rat bladder cells (MTT test); type: cell-based; details: AY-27 cells; for Cytotoxicity: 2 hours, MTT test
Method: All experiments were performed in 4-5 replicates under subdued light. For concentrations of compounds 1 mM, the cytotoxicity was assessed with MTT test. Exponentially growing cells were incubated with freshly prepared solution or medium as described above for 2 hours in 96-well plates. After the incubation, the solutions or the medium was discarded and the cells were washed twice with PBS. Then 50 μl of MTT (2.5 mg·ml^−1) was added to 150 μl of RPMI serum-free medium per well and incubated for 3 hours. Absorbance was measured by dissolving formazan crystals with 50 μl of DMSO. The absorbance was normalized to that of control cells.

[5] = system: Salmonella typhimurium, TA98 and TA100; test: Ames test (mutagenic and photomutagenic potential); type: cell-based; details: absence and presence of S-9, absence and presence of visible light
Description: The Ames test (see B. N. Ames et al, Methods for detecting carcinogens and mutagens with the Salmonella/mammalian-microsome mutagenicity test. Mutation Research 31, 347-364, 1975) is a standard test method approved by the regulatory authorities to detect an ability of a test chemical compound to induce mutation in certain bacterial strains. If a test chemical compound induces such mutations, it cannot be used in a pharmaceutical compound for use in humans.
The objective of this study was to evaluate the mutagenic potential and photomutagenic potential of compound 1c, carboxymethyl 5-amino-4-oxopentanoate hydrobromide (prepared according to Example 1c) by examining its ability to revert two histidine-requiring strains of Salmonella typhimurium, TA98 and TA100, in the absence and presence of a rat liver metabolising system (S-9) and also in the absence and presence of visible light. The latter was assessed since compound 1c is taken up by the bacteria cells and converted into a photosensitiser, which, upon illumination of said cells, might induce mutagenic products.

back skin of minipigs = test: In vivo skin fluorescence study in minipigs (FluoDerm); details: 15% cream in Unguentum Merck, 0.5 g per site, 1.5, 5 and 12 hours after application, FIG. 1
Method: Compound 1c (carboxymethyl 5-amino-4-oxopentanoate hydrobromide, prepared according to Example 1c) was formulated as a cream in Unguentum Merck (15%, 150 mg/g; 0.56 mmol).
The cream was administered to the back skin of minipigs. Prior to application of the cream, the surrounding skin was cleaned with sterile water and gauze, if necessary. 0.5 g cream was applied to each test site (50 mm in diameter) resulting in a homogenous cream layer and then covered with a dressing (Tegaderm®). The gauze Vet-Flex® was used to keep the dressing in place.
Skin fluorescence at 630 nm was assessed prior to cream application and at 1.5, 5 and 12 hours after cream application using the FluoDerm instrument (DiaMedico ApS, Denmark) according to the manufacturers instructions. The FluoDerm instrument is a hand-held device for objective real-time in vivo measuring of average fluorescence over a circular field with diameter 40 mm. Measurements were electronically corrected for the actual ambient light.

[6] = system: sebaceous glands and epidermis of minipig skin; test: Minipig skin biopsies, fluorescence microscopy; type: in vivo, minipigs; details: minipig skin biopsy sections; 15% cream
Method: The cream was administered as described above. At t=0 (i.e. prior to administration of the cream), 1.5, 5 and 12 hours, biopsy samples were taken using a 10 mm biopsy punch (AcuPunch 10 mm, Acuderm, USA). The samples were taken and handled in a minimally illuminated room. Each sample was trimmed free of any subcutaneous fatty tissue and thereafter cut in half. Each sample was then snap frozen in liquid nitrogen, in an aluminium foil bag or similar, and transferred to a −80° C. freezer.
The biopsy samples were sectioned at 10 μm and again care was taken to minimize the surrounding light. When sebaceous glands and epidermis could be identified, a series of 3 consecutive sections was prepared from each sample. The sections were examined within 15 minutes in a Leica DMRXE microscope equipped for both ordinary light microscopy and fluorescence microscopy. Epidermis and sebaceous glands were localized using conventional light microscopy. This was carried out within 5 seconds and then the light source was changed to a mercury lamp/fluorescence with filter set; excitation filter 390-447 nm, beam splitter 455 nm and an emission filter >600 nm. The sections were immediately photographed. Without moving the specimen the light source was changed back to conventional light microscopy and the sections were photographed in exactly the same position as for the fluorescence microscopy. As well as the epidermis and sebaceous glands, the dermis was analysed and if fluorescence was found also photographed. To further investigate localisation of all analyzed structures, the sections were stained with hematoxylin/eosin.
Image analysis was performed using the software program, Image J (version Fiji-win32.exe). With this program, average fluorescence intensity per pixel was measured from the saved images.

[7] = system: UV-damaged mouse skin versus healthy mouse skin; test: In vivo skin fluorescence in healthy nude mice and nude mice with UV-damaged skin; details: nude mice
Method: An experiment was carried out to assess the potential for compound 6 to show selective accumulation in UV-damaged skin. For the assessment, skin fluorescence after application of the compound was measured in vivo in healthy mouse skin and in UV-damaged mouse skin. A nude mice model with UV-damaged skin (actinic damage) was established as described by K. Togsverd-Bo et al., Exp. Dermatol. 2012, 21, 260-264.
Equimolar amounts of compound 2 (1-(isopropyl carboxy)ethyl 5-amino-4-oxopentanoate hydrochloride prepared according to Example 2) and compound 5 (3-carboxypropyl 5 amino-4-oxopentanoate hydrochloride prepared according to Example 5) were formulated as a cream in Unguentum Merck: compound 2: 16%, 160 mg/g and compound 5: 14%, 140 mg/g, respectively.
One group of healthy nude mice (10 mice, control group) and one group of nude mice with UV-damaged skin (10 mice) were included in the experiment. About 125 μl of cream formulation was applied onto the back of each mouse. Prior to cream application, the dorsal skin of each mouse was tape-stripped five times to enhance penetration of the compound: adhesive film (Scotch tape, 3M) was pressed onto the skin of the application area, the tape strip was removed with one quick movement and a new tape strip was used. The mice were kept in the dark for 3 hours prior to skin fluorescence measurement to avoid photobleaching. Skin fluorescence was assessed as described in Example 17 and the mean amount of skin fluorescence for each group of mice was calculated.
The ratio of skin fluorescence [a.u] in UV-damaged mouse skin to skin fluorescence [a.u.] in healthy mouse skin was determined.

NCC(=O)CCC(=O)OCc1ccc(C(=O)O)cc1 [Compound 7, (4-carboxyphenyl)methyl 5-amino-4-oxopentanoate hydrobromide]
Skin fluorescence [1]: 2995 a.u.

NCC(=O)CCC(=O)OCCC(=O)O [Compound 4, 2-carboxyethyl 5-amino-4-oxopentanoate hydrobromide]
Skin fluorescence [1]: 8473 a.u.
Dark toxicity [2]: No dark toxicity was observed
PpIX Mean ± SD ([3]; 1 mM): 45 ± 8 pmoles/mg protein
PpIX Mean ± SD ([3]; 5 mM): 141 ± 24 pmoles/mg protein
PpIX Mean ± SD ([3]; 15 mM): 180 ± 94 pmoles/mg protein
PpIX concentration compared to HAL (0.8 mM) ([3]; compound at 1 mM): significantly lower compared to HAL
PpIX concentration compared to HAL (0.8 mM) ([3]; compound at 5 mM): About half of the PpIX concentration of HAL
Cytotoxicity ([4]; 1 mM): 3 % of control
Cytotoxicity ([4]; 5 mM): 14 % of control
Cytotoxicity ([4]; 15 mM): 39 % of control
Cytotoxicity at higher concentration ([4]; concentration higher than 5 mM): cytotoxicity was induced

NCC(=O)CCC(=O)OCC(=O)O [Compound 1c, carboxymethyl 5-amino-4-oxopentanoate hydrobromide]
Dark toxicity [2]: No dark toxicity was observed
Induction of mutation or photomutation [5]: did not induce mutation or photomutation
Skin fluorescence at 630 nm over time (back skin of minipigs): skin fluorescence increased with time
Selectivity for sebaceous glands [6]: shows a selectivity for sebaceous glands
Time after cream application at which fluorescence was also seen in the epidermis [6]: 5 h
Time after cream application at which fluorescence was seen in the sebaceous glands [6]: 1.5 h

CC(C)OC(=O)C(C)OC(=O)CCC(=O)CN (stereo not drawn) [Compound 2, 1-(isopropylcarboxy)ethyl 5-amino-4-oxopentanoate hydrochloride]
Ratio of skin fluorescence in UV-damaged mouse skin to skin fluorescence in healthy mouse skin ([7]; equimolar creams (16% / 14%), about 125 μl, tape-stripped skin, 3 hours in the dark, 10 mice per group): 1.14
Selectivity for UV-damaged skin ([7]; equimolar creams, 3 hours): some selectivity for UV-damaged skin
Skin fluorescence [1]: 31557 a.u.
